Source: patent publication US11149040B2, “Fused triazole agonists of the APJ receptor” (AMGEN INC., priority 2017, dated 2021)

Molecular target: human APJ receptor (Homo sapiens (Human), UniProt P35414)
Assay: [35S]GTPγS binding assay on membranes from CHO cells stably expressing human APJ receptor
Format: biochemical
Settings: read-out: Activity hAPJ SPA EC50 IP
Experimental: [^35S]GTPγS Binding The human APJ receptor was cloned by polymerase chain reaction and the gene encoding the receptor was subcloned in pFLAG-CMV™-3 expression vector (Sigma, Saint Louis, Mo. USA) in-house at Amgen. A GTPγS binding assay was performed on membranes prepared from CHO cells stably expressing human APJ receptor. The optimum experimental conditions for the concentrations of GDP, MgCl2, and NaCl in the assay buffer were initially determined. […] Incubation was at RT for 90 min and the microplate was read using a ViewLux™ ultra HTS Microplate Imager (PerkinElmer, Inc.). All the results presented are means of several independent experiments and analyzed by non-linear regression methods using the commercially available program Prism (GraphPad, San Diego, Calif.) providing the EC50 values detailed in Table 13.

Chain of human APJ receptor (P35414 whole entry): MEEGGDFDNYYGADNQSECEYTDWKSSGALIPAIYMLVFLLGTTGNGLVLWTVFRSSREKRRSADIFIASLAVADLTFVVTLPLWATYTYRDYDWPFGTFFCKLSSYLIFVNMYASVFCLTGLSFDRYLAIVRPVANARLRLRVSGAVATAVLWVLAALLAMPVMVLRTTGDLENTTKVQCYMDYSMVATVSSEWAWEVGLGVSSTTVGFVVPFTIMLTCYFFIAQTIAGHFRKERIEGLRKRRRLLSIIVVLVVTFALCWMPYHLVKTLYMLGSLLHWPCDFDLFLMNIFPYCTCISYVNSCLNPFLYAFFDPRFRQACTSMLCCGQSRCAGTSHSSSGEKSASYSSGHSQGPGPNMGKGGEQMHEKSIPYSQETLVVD

Row | SMILES | EC50 [nM]
1 | COC[C@@H]1COc2ccc(OC)nc2-c2nnc(NS(=O)(=O)[C@@H](C)[C@H](C)c3ncc(C)cn3)n21 (mixture of isomers) [Example 10.0, (2S,3R)-N-((5R)-10-methoxy-5-(methoxymethyl)-5,6-dihydropyrido[2,3-f][1,2,4]triazolo[4,3-d][1,4]oxazepin-3-yl)-3-(5-methyl-2-pyrimidinyl)-2-butanesulfonamide and (2S,3R)-N-((5S)-10-methoxy-5-(methoxymethyl)-5,6-dihydropyrido[2,3-f][1,2,4]triazolo[4,3-d][1,4]oxazepin-3-yl)-3-(5-methyl-2-pyrimidinyl)-2-butanesulfonamide] | 790
2 | COC[C@@H]1COc2ccc(OC)nc2-c2nnc(NS(=O)(=O)[C@@H](C)[C@@H](OC(C)C)c3ncc(C)cn3)n21 (mixture of isomers) [Example 11.0, (1S,2S)-N-((5R)-10-methoxy-5-(methoxymethyl)-5,6-dihydropyrido[2,3-f][1,2,4]triazolo[4,3-d][1,4]oxazepin-3-yl)-1-(5-methyl-2-pyrimidinyl)-1-(2-propanyloxy)-2-propanesulfonamide and (1S,2S)-N-((5S)-10-methoxy-5-(methoxymethyl)-5,6-dihydropyrido[2,3-f][1,2,4]triazolo[4,3-d][1,4]oxazepin-3-yl)-1-(5-methyl-2-pyrimidinyl)-1-(2-propanyloxy)-2-propanesulfonamide] | 41
3 | COC[C@@H]1COc2cc(F)c(F)cc2-c2nnc(NS(=O)(=O)[C@@H](C)[C@@H](OC(C)C)c3ncc(C)cn3)n21 (mixture of isomers) [Example 16.0, (1S,2S)-N-((5R)-9,10-difluoro-5-(methoxymethyl)-5,6-dihydro[1,2,4]triazolo[4,3-d][1,4]benzoxazepin-3-yl)-1-(5-methyl-2-pyrimidinyl)-1-(2-propanyloxy)-2-propanesulfonamide and (1S,2S)-N-((5S)-9,10-difluoro-5-(methoxymethyl)-5,6-dihydro[1,2,4]triazolo[4,3-d][1,4]benzoxazepin-3-yl)-1-(5-methyl-2-pyrimidinyl)-1-(2-propanyloxy)-2-propanesulfonamide] | 1700
4 | COC[C@@H]1COc2ccc(F)cc2-c2nnc(NS(=O)(=O)[C@@H](C)[C@@H](OC(C)C)c3ncc(C)cn3)n21 (mixture of isomers) [Example 23.0, (1S,2S)-N-((5R)-10-fluoro-5-(methoxymethyl)-5,6-dihydro[1,2,4]triazolo[4,3-d][1,4]benzoxazepin-3-yl)-1-(5-methyl-2-pyrimidinyl)-1-(2-propanyloxy)-2-propanesulfonamide and (1S,2S)-N-((5S)-10-fluoro-5-(methoxymethyl)-5,6-dihydro[1,2,4]triazolo[4,3-d][1,4]benzoxazepin-3-yl)-1-(5-methyl-2-pyrimidinyl)-1-(2-propanyloxy)-2-propanesulfonamide] | 37
5 | Cc1cnc([C@H](OC(C)C)[C@H](C)S(=O)(=O)Nc2nnc3n2[C@H](CO)COc2ncccc2-3)nc1 (mixture of isomers) [Example 30.0, (1S,2S)-N-((5R)-5-(hydroxymethyl)-5,6-dihydropyrido[3,2-f][1,2,4]triazolo[4,3-d][1,4]oxazepin-3-yl)-1-(5-methyl-2-pyrimidinyl)-1-(2-propanyloxy)-2-propanesulfonamide and (1S,2S)-N-((5S)-5-(hydroxymethyl)-5,6-dihydropyrido[3,2-f][1,2,4]triazolo[4,3-d][1,4]oxazepin-3-yl)-1-(5-methyl-2-pyrimidinyl)-1-(2-propanyloxy)-2-propanesulfonamide] | 460
6 | CC(C)O[C@@H](c1ncc(Cl)cn1)[C@H](C)S(=O)(=O)Nc1nnc2n1[C@H](CO)COc1ncccc1-2 (mixture of isomers) [Example 31.0, (1S,2S)-1-(5-chloro-2-pyrimidinyl)-N-((5R)-5-(hydroxymethyl)-5,6-dihydropyrido[3,2-f][1,2,4]triazolo[4,3-d][1,4]oxazepin-3-yl)-1-(2-propanyloxy)-2-propanesulfonamide and (1S,2S)-1-(5-chloro-2-pyrimidinyl)-N-((5S)-5-(hydroxymethyl)-5,6-dihydropyrido[3,2-f][1,2,4]triazolo[4,3-d][1,4]oxazepin-3-yl)-1-(2-propanyloxy)-2-propanesulfonamide] | 720
7 | COC[C@@H]1COc2ncccc2-c2nnc(NS(=O)(=O)[C@@H](C)[C@@H](OC(C)C)c3ncc(C)cn3)n21 (mixture of isomers) [Example 32.0, (1S,2S)-N-((5R)-5-(methoxymethyl)-5,6-dihydropyrido[3,2-f][1,2,4]triazolo[4,3-d][1,4]oxazepin-3-yl)-1-(5-methyl-2-pyrimidinyl)-1-(2-propanyloxy)-2-propanesulfonamide and (1S,2S)-N-((5S)-5-(methoxymethyl)-5,6-dihydropyrido[3,2-f][1,2,4]triazolo[4,3-d][1,4]oxazepin-3-yl)-1-(5-methyl-2-pyrimidinyl)-1-(2-propanyloxy)-2-propanesulfonamide] | 140
8 | COC[C@@H]1COc2c(OC)cccc2-c2nnc(NS(=O)(=O)[C@@H](C)[C@@H](OC(C)C)c3ncc(C)cn3)n21 (mixture of isomers) [Example 33.0, (1S,2S)-N-((5R)-8-methoxy-5-(methoxymethyl)-5,6-dihydro[1,2,4]triazolo[4,3-d][1,4]benzoxazepin-3-yl)-1-(5-methyl-2-pyrimidinyl)-1-(2-propanyloxy)-2-propanesulfonamide and (1S,2S)-N-((5S)-8-methoxy-5-(methoxymethyl)-5,6-dihydro[1,2,4]triazolo [4,3-d][1,4]benzoxazepin-3-yl)-1-(5-methyl-2-pyrimidinyl)-1-(2-propanyloxy)-2-propanesulfonamide] | 15
9 | CO[C@H](c1ncc(C)cn1)[C@H](C)S(=O)(=O)Nc1nnc2n1[C@H](CO)COc1ncccc1-2 (mixture of isomers) [Example 36.0, (1R,2S)-N-((5R)-5-(hydroxymethyl)-5,6-dihydropyrido[3,2-f][1,2,4]triazolo[4,3-d][1,4]oxazepin-3-yl)-1-methoxy-1-(5-methyl-2-pyrimidinyl)-2-propanesulfonamide and (1R,2S)-N-((5S)-5-(hydroxymethyl)-5,6-dihydropyrido[3,2-f][1,2,4]triazolo[4,3-d][1,4]oxazepin-3-yl)-1-methoxy-1-(5-methyl-2-pyrimidinyl)-2-propanesulfonamide] | 1800
10 | COC[C@@H]1COc2ncccc2-c2nnc(NS(=O)(=O)[C@@H](C)[C@@H](OC(C)C)c3ncc(Cl)cn3)n21 (mixture of isomers) [Example 37.0, (1S,2S)-1-(5-chloro-2-pyrimidinyl)-N-((5R)-5-(methoxymethyl)-5,6-dihydropyrido[3,2-f][1,2,4]triazolo[4,3-d][1,4]oxazepin-3-yl)-1-(2-propanyloxy)-2-propanesulfonamide and (1S,2S)-1-(5-chloro-2-pyrimidinyl)-N-((5S)-5-(methoxymethyl)-5,6-dihydropyrido[3,2-f][1,2,4]triazolo[4,3-d][1,4]oxazepin-3-yl)-1-(2-propanyloxy)-2-propanesulfonamide] | 30
11 | COC[C@@H]1COc2ccc(F)cc2-c2nnc(NS(=O)(=O)CCc3ncc(C)cn3)n21 (mixture of isomers) [Example 42.0, N-((5R)-10-fluoro-5-(methoxymethyl)-5,6-dihydro[1,2,4]triazolo[4,3-d][1,4]benzoxazepin-3-yl)-2-(5-methyl-2-pyrimidinyl)ethanesulfonamide and N-((5S)-10-fluoro-5-(methoxymethyl)-5,6-dihydro[1,2,4]triazolo[4,3-d][1,4]benzoxazepin-3-yl)-2-(5-methyl-2-pyrimidinyl)ethanesulfonamide] | 4100
12 | CO[C@H](c1ncc(C)cn1)[C@H](C)S(=O)(=O)Nc1nnc2n1[C@H](COC(C)C)COc1ncccc1-2 (mixture of isomers) [Example 56.0, (1R,2S)-N-((R)-5-(isopropoxymethyl)-5,6-dihydropyrido[3,2-f][1,2,4]triazolo[4,3-d][1,4]oxazepin-3-yl)-1-methoxy-1-(5-methylpyrimidin-2-yl)propane-2-sulfonamide and (1R,2S)-N-((S)-5-(isopropoxymethyl)-5,6-dihydropyrido[3,2-f][1,2,4]triazolo[4,3-d][1,4]oxazepin-3-yl)-1-methoxy-1-(5-methylpyrimidin-2-yl)propane-2-sulfonamide] | 2200
13 | Cc1cnc([C@@H](OC(C)C)[C@H](C)S(=O)(=O)Nc2nnc3n2[C@H](CO)COc2ncccc2-3)nc1 (mixture of isomers) [Example 57.0, (1R,2S)-N-((5R)-5-(hydroxymethyl)-5,6-dihydropyrido[3,2-f][1,2,4]triazolo[4,3-d][1,4]oxazepin-3-yl)-1-(5-methyl-2-pyrimidinyl)-1-(2-propanyloxy)-2-propanesulfonamide and (1R,2S)-N-((5S)-5-(hydroxymethyl)-5,6-dihydropyrido[3,2-f][1,2,4]triazolo[4,3-d][1,4]oxazepin-3-yl)-1-(5-methyl-2-pyrimidinyl)-1-(2-propanyloxy)-2-propanesulfonamide] | > 12500
14 | Cc1cnc([C@H](OC(C)C)[C@H](C)S(=O)(=O)Nc2nnc3n2[C@H](CO)COc2cccnc2-3)nc1 (mixture of isomers) [Example 58.0, (1S,2S)-N-((R)-5-(hydroxymethyl)-5,6-dihydropyrido[2,3-f][1,2,4]triazolo[4,3-d][1,4]oxazepin-3-yl)-1-isopropoxy-1-(5-methylpyrimidin-2-yl)propane-2-sulfonamide and (1S,2S)-N-((S)-5-(hydroxymethyl)-5,6-dihydropyrido[2,3-f][1,2,4]triazolo[4,3-d][1,4]oxazepin-3-yl)-1-isopropoxy-1-(5-methylpyrimidin-2-yl)propane-2-sulfonamide] | 2100
